Source: US11332440B2, “4-oxo-alkylated tetramic acid compound, and preparation method thereof” (priority 2017, dated 2022)
“Also recorded” adds a separate entry of the source.

Key:
[1] = system: Salmonella typhimurium TA100; test: Mini Ames experiment, strain TA100; type: cell-based; details: TA100, regardless of the presence or absence of S9
Description: Histidine auxotrophic strains of Salmonella typhimurium were cultured in a special medium with quite a low content of histidine. The strains were difficult to divide due to lack of nutrition. If a test compound has mutagenicity, a large number of cells will undergo reverse mutation, synthesizing histidine by themselves and developing into colonies visible to the naked eye. In view of the close relationship between mutagenicity and carcinogenesis of chemicals, this method has been widely used in screening carcinogens. Some chemicals need metabolic activation to induce mutagenicity. Mammalian microsomal enzyme S9 can be added into the test system to eliminate the influence of metabolic activation on generation of mutagenicity.
[…] Mini Ames test with compound 50561

[2] = Pharmacokinetic evaluation, plasma and brain concentrations; type: in vivo, ICR mice
Text: Distribution of a medicament in the body is one of the important indicators to determine the dose and efficacy of the medicament. Thus, excellent candidate compounds should have good pharmacokinetic characteristics. In addition, since the compound of the present invention is intended to be used for the treatment of Alzheimer's disease, which is a disease of the central nervous system, the distribution pattern of the compound in the brain and the blood is also one of the subjects to be investigated. In this experiment, compound 50561 was administered to mice […] or by gavage, and the concentrations of the compound in blood and brain were measured at specific time points to determine the pharmacokinetic parameters.
Forty-eight male ICR mice purchased from Shanghai Sippr-BK Lab. Animal Co. Ltd were used in this experiment. The oral group was fasted for 10-14 hours before administration, and feeding was restored 4 hours after administration. Samples were collected from the intravenous administration group 0.083 h, 0.25 h, 0.5 h, 1 h, 2 h, 4 h, 8 h, and 24 h after administration, respectively; while for the oral administration group, about 0.5 mL of blood was collected from the heart 0.25 h, 0.5 h, 1 h, 2 h, 4 h, 6 h, 8 h, and 24 h after administration, respectively. Heparin sodium was used for anticoagulation. Blood samples were collected and placed on ice, and plasma was separated by centrifugation (centrifugation conditions: 8000 rpm, 6 minutes, 4C). The collected plasma was stored at −80° C. before analysis. After collecting plasma samples, brain tissues were collected, washed with normal saline, water-absorbed by filter paper, weighed immediately, and then placed in labeled tubes (one tube for one brain tissue). The samples to be tested were temporarily placed on ice before being stored in a −80° C. refrigerator.
The analysis methods of biological samples and the analysis of all samples were done by Medicilon Pharmaceutical Technology (Shanghai) Co., Ltd. The intraday accuracy evaluation of the quality control samples was carried out while analyzing the samples, and the accuracy of over 66.7% of the quality control samples was required to be between 80-120%.
When calculating the pharmacokinetic parameters, the BLQ before Cmax (including “No peak”) was calculated as 0; BLQ occurring after Cmax (including “No peak”) was not involved in the calculation. WinNonlin Professional V 5.2 (Pharsight, USA) was adopted to calculate the following pharmacokinetic parameters: AUC(0-t), AUC(0-∞), T1/2, MRT(0-∞), Cmax, and Tmax. The tissue/plasma ratio was to be calculated by the following formula based on the blood concentration data at different time points: Tissue/plasma ratio (mL/g)=tissue blood concentration/plasma blood concentration.

O=C1C=C(OCc2ccc(F)cc2)[C@H](Cc2ccccc2)N1 [Compound 50561]
change in the number of colonies / mutagenicity [1]: did not cause more than twice of a change in the number of colonies; also recorded: no obvious mutagenicity
Brain/plasma ratio ([2]; IV 1 mg/kg, 0.083 hr, G1-1): 2.604 mL/G
Brain/plasma ratio ([2]; IV 1 mg/kg, 0.083 hr, G1-2): 2.645 mL/G
Brain/plasma ratio ([2]; IV 1 mg/kg, 0.083 hr, G1-3): 2.249 mL/G
Brain/plasma ratio ([2]; IV 1 mg/kg, 0.083 hr, Mean): 2.499 mL/G
Brain/plasma ratio ([2]; IV 1 mg/kg, 0.25 hr, G1-1): 2.451 mL/G
Brain/plasma ratio ([2]; IV 1 mg/kg, 0.25 hr, G1-2): 2.415 mL/G
Brain/plasma ratio ([2]; IV 1 mg/kg, 0.25 hr, G1-3): 2.159 mL/G
Brain/plasma ratio ([2]; IV 1 mg/kg, 0.25 hr, Mean): 2.342 mL/G
Brain/plasma ratio ([2]; IV 1 mg/kg, 0.5 hr, G1-1): 2.540 mL/G
Brain/plasma ratio ([2]; IV 1 mg/kg, 0.5 hr, G1-2): 2.564 mL/G
Brain/plasma ratio ([2]; IV 1 mg/kg, 0.5 hr, G1-3): 2.361 mL/G
Brain/plasma ratio ([2]; IV 1 mg/kg, 0.5 hr, Mean): 2.488 mL/G
Brain/plasma ratio ([2]; IV 1 mg/kg, 1 hr, G1-1): 2.330 mL/G
Brain/plasma ratio ([2]; IV 1 mg/kg, 1 hr, G1-2): 3.941 mL/G
Brain/plasma ratio ([2]; IV 1 mg/kg, 1 hr, G1-3): 2.751 mL/G
Brain/plasma ratio ([2]; IV 1 mg/kg, 1 hr, Mean): 3.007 mL/G
Blood concentration ([2]; IV 1 mg/kg, 2 hr, G1-1): BLQ
Brain tissue concentration ([2]; IV 1 mg/kg, 2 hr, G1-1): BLQ
Blood concentration ([2]; IV 1 mg/kg, 2 hr, G1-2): BLQ
Brain tissue concentration ([2]; IV 1 mg/kg, 2 hr, G1-2): BLQ
Blood concentration ([2]; IV 1 mg/kg, 2 hr, G1-3): BLQ
Brain tissue concentration ([2]; IV 1 mg/kg, 2 hr, G1-3): BLQ
Blood concentration ([2]; IV 1 mg/kg, 4 hr, G1-1): BLQ
Brain tissue concentration ([2]; IV 1 mg/kg, 4 hr, G1-1): BLQ
Blood concentration ([2]; IV 1 mg/kg, 4 hr, G1-2): BLQ
Brain tissue concentration ([2]; IV 1 mg/kg, 4 hr, G1-2): BLQ
Blood concentration ([2]; IV 1 mg/kg, 4 hr, G1-3): BLQ
Brain tissue concentration ([2]; IV 1 mg/kg, 4 hr, G1-3): BLQ
Blood concentration ([2]; IV 1 mg/kg, 8 hr, G1-1): BLQ
Brain tissue concentration ([2]; IV 1 mg/kg, 8 hr, G1-1): BLQ
Blood concentration ([2]; IV 1 mg/kg, 8 hr, G1-2): BLQ
Brain tissue concentration ([2]; IV 1 mg/kg, 8 hr, G1-2): BLQ
Blood concentration ([2]; IV 1 mg/kg, 8 hr, G1-3): BLQ
Brain tissue concentration ([2]; IV 1 mg/kg, 8 hr, G1-3): BLQ
Blood concentration ([2]; IV 1 mg/kg, 24 hr, G1-1): BLQ
Brain tissue concentration ([2]; IV 1 mg/kg, 24 hr, G1-1): BLQ
Blood concentration ([2]; IV 1 mg/kg, 24 hr, G1-2): BLQ
Brain tissue concentration ([2]; IV 1 mg/kg, 24 hr, G1-2): BLQ
Blood concentration ([2]; IV 1 mg/kg, 24 hr, G1-3): BLQ
Brain tissue concentration ([2]; IV 1 mg/kg, 24 hr, G1-3): BLQ
Brain/plasma ratio ([2]; PO 10 mg/kg, 0.25 hr, G2-1): 1.948 mL/G
Brain/plasma ratio ([2]; PO 10 mg/kg, 0.25 hr, G2-2): 1.590 mL/G
Brain/plasma ratio ([2]; PO 10 mg/kg, 0.25 hr, G2-3): 2.093 mL/G
Brain/plasma ratio ([2]; PO 10 mg/kg, 0.25 hr, Mean): 1.877 mL/G
Brain/plasma ratio ([2]; PO 10 mg/kg, 0.5 hr, G2-1): 2.435 mL/G
Brain/plasma ratio ([2]; PO 10 mg/kg, 0.5 hr, G2-2): 2.027 mL/G
Brain/plasma ratio ([2]; PO 10 mg/kg, 0.5 hr, G2-3): 1.980 mL/G
Brain/plasma ratio ([2]; PO 10 mg/kg, 0.5 hr, Mean): 2.147 mL/G
Brain/plasma ratio ([2]; PO 10 mg/kg, 1 hr, G2-1): 2.485 mL/G
Brain/plasma ratio ([2]; PO 10 mg/kg, 1 hr, G2-2): 2.152 mL/G
Brain/plasma ratio ([2]; PO 10 mg/kg, 1 hr, G2-3): 2.158 mL/G
Brain/plasma ratio ([2]; PO 10 mg/kg, 1 hr, Mean): 2.265 mL/G
Brain/plasma ratio ([2]; PO 10 mg/kg, 2 hr, G2-1): 2.163 mL/G
Brain/plasma ratio ([2]; PO 10 mg/kg, 2 hr, G2-2): 2.454 mL/G
Brain/plasma ratio ([2]; PO 10 mg/kg, 2 hr, G2-3): 2.372 mL/G
Brain/plasma ratio ([2]; PO 10 mg/kg, 2 hr, Mean): 2.329 mL/G
Brain/plasma ratio ([2]; PO 10 mg/kg, 4 hr, G2-1): 2.373 mL/G
Brain/plasma ratio ([2]; PO 10 mg/kg, 4 hr, G2-2): 2.428 mL/G
Brain/plasma ratio ([2]; PO 10 mg/kg, 4 hr, G2-3): 1.355 mL/G
Brain/plasma ratio ([2]; PO 10 mg/kg, 4 hr, Mean): 2.052 mL/G
Brain/plasma ratio ([2]; PO 10 mg/kg, 6 hr, G2-1): 1.839 mL/G
Brain/plasma ratio ([2]; PO 10 mg/kg, 6 hr, G2-2): 2.764 mL/G
Brain/plasma ratio ([2]; PO 10 mg/kg, 6 hr, G2-3): 2.929 mL/G
Brain/plasma ratio ([2]; PO 10 mg/kg, 6 hr, Mean): 2.511 mL/G
Brain/plasma ratio ([2]; PO 10 mg/kg, 8 hr, G2-1): 1.575 mL/G
Brain/plasma ratio ([2]; PO 10 mg/kg, 8 hr, G2-2): 2.443 mL/G
Brain tissue concentration ([2]; PO 10 mg/kg, 8 hr, G2-3): BLQ
Brain/plasma ratio ([2]; PO 10 mg/kg, 8 hr, Mean): 2.009 mL/G
Blood concentration ([2]; PO 10 mg/kg, 24 hr, G2-1): BLQ
Brain tissue concentration ([2]; PO 10 mg/kg, 24 hr, G2-1): BLQ
Blood concentration ([2]; PO 10 mg/kg, 24 hr, G2-2): BLQ
Brain tissue concentration ([2]; PO 10 mg/kg, 24 hr, G2-2): BLQ
Blood concentration ([2]; PO 10 mg/kg, 24 hr, G2-3): BLQ
Brain tissue concentration ([2]; PO 10 mg/kg, 24 hr, G2-3): BLQ
blood-brain barrier permeability (content in brain tissue versus blood) ([2]; after intravenous injection and oral administration): good blood-brain barrier permeability
concentration at 0.083 h ([2]; male, ICR, mouse, brain, IV 1 mg/kg, 0.083 hr, G1-3, read-out: Brain tissue concentration): 977 ng/g
